Laboratory results published in patent US20140088306A1, “RADIOACTIVE FLUORINE-LABELED QUINOXALINE COMPOUND” (Nihon Medi-Physics Co., Ltd., priority 2012, published 2014).
Read-outs that look alike come from different tables or passages of the source.

Target: T1, Aβ1-42 aggregates (Homo sapiens, UniProt P05067)
T1 construct: Aβ1-42 aggregates (Peptide Institute, Inc, Osaka) were dissolved in 0.1 mol/L phosphate-buffered saline; purchased Peptide Institute, Inc., Osaka
Assay: [^125I]IMPY binding inhibition experiment (Example 5)
Details: for binding property to Aβ1-42 aggregates: [^125I]IMPY binding inhibition, result in words
Description: Aβ1-42 aggregates (Peptide Institute, Inc, Osaka) were dissolved in 0.1 mol/L phosphate-buffered saline (hereinafter referred to as PBS) to 0.25 mg/mL and incubated at 37° C. for 42 hours to prepare an Aβ1-42 aggregate PBS solution. This was further diluted 1:100 with PBS to 2.5 μg/mL and used for an assay.
The mixture was filtered through Whatman (R) GF/B filter, and a γ counter was used to measure the radioactivity of the filter. The measured radioactivity values were used to prepare an inhibition curve to calculate IC50. In addition, the following mathematical expression (1):
was used to calculate an inhibition constant (Ki).

[1] = inhibition of [^125I]IMPY binding to Aβ1-42 aggregates

T1 sequence (P05067 672-713 limits assumed): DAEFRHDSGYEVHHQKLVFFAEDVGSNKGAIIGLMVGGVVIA

Row | Compound | Ki [nM] | binding property to Aβ1-42 aggregates | Ki [1] [nM]
1 | CN(C)c1ccc(-c2cnc3cc(OCCF)ccc3n2)cc1 [Compound D3, 4-(6-(2-Fluoroethoxy)quinoxalin-2-yl)-N,N-dimethylaniline] | 0.947 | sufficiently high binding property | 
2 | Nc1ccc(-c2cnc3ccc(OCCF)cc3n2)cc1 [Compound E1, 4-(7-(2-Fluoroethoxy)quinoxalin-2-yl)aniline] |  | not each confirmed to have a sufficient binding property | 1180
3 | CNc1ccc(-c2cnc3ccc(OCCF)cc3n2)cc1 [Compound E2, 4-(7-(2-Fluoroethoxy)quinoxalin-2-yl)-N-methylaniline] |  | not each confirmed to have a sufficient binding property | 758
4 | CN(C)c1ccc(-c2cnc3ccc(OCCF)cc3n2)cc1 [Compound E3, 4-(7-(2-Fluoroethoxy)quinoxalin-2-yl)-N,N-dimethylaniline] |  | sufficiently high binding property | 111
